# Values of other authors, collected in patent US9763892B2, “Immediate release phospholipid-coated therapeutic agent nanoparticles and related methods” (Autotelic LLC, priority 2015, dated 2017).
# Conditions: phospholipid used for PTX-NPs
row,SMILES,Transition Temp.
1,"CCCCCCCCCCCCCCCC(=O)OC[C@H](COP(=O)([O-])OCC[N+](C)(C)C)OC(=O)CCCCCCCCCCCCCCC [PC 16, 1,2-dipalmitoyl-sn-glycero-3-phosphocholine]",41 °C
2,"CCCCCCCCCCCC(=O)OC[C@H](COP(=O)([O-])OCC[N+](C)(C)C)OC(=O)CCCCCCCCCCC [PC-12, 1,2-dilauroyl-sn-glycero-3-phosphocholine]",−2 °C
3,"CCCCCCCC/C=C\CCCCCCCC(=O)OC[C@H](COP(=O)([O-])OCC[N+](C)(C)C)OC(=O)CCCCCCC/C=C\CCCCCCCC [PC-18 (unsaturated), 1,2-dioleoyl-sn-glycero-3-phosphocholine]",−17 °C

# Other lines, results leading:
row,Transition Temp.,SMILES
1,66 °C,"CCCCCCCCCCCCCCCCCCCC(=O)OC[C@H](COP(=O)([O-])OCC[N+](C)(C)C)OC(=O)CCCCCCCCCCCCCCCCCCC [PC-20, 1,2-diarachidoyl-sn-glycero-3-phosphocholine]"
2,24 °C,"CCCCCCCCCCCCCC(=O)OC[C@H](COP(=O)([O-])OCC[N+](C)(C)C)OC(=O)CCCCCCCCCCCCC [PC-14, 1,2-dimyristoyl-sn-glycero-3-phosphocholine]"
